Source: patent US11891703B2, “Corrosion inhibition package” (DORF KETAL CHEMICALS FZE, priority 2017, dated 2024)

Tests used:
[1] = death can occur in 2-3 minutes; cited from earlier work
[2] = cited from earlier work
[3] = Corrosion test of acid compositions with corrosion inhibition package on 1018 steel coupons; conditions: Table 3, 1.2:1 HCl-Urea, 50% dilution in seawater, 90° C., 6 hours, 1% package + 1% CI-1A
Source text: Various types of steel alloy coupons were subjected to corrosion testing in the presence of conventional, synthetic and modified acid compositions using corrosion inhibitor components according to preferred embodiments of the present invention at various temperatures. Coupons of various grades of steel alloys (indicated in each table) were exposed to the various listed compositions for various periods of time at varying temperatures.
The following corrosion testing outlined in the tables below for a number of different corrosion inhibition packages according to the present invention in the presence of a synthetic or modified acid composition was carried out diluted with saline water (in most cases) at various temperatures for various durations of exposure. Depending on the intended use/application of an acidic fluid composition comprising a corrosion inhibitor package according to the present invention, a desirable result would be one where the lb/ft^2 corrosion number is at or below 0.05. A more desirable would be one where the corrosion (in lb/ft^2) is at or below 0.02. Generally, seawater has the deleterious effect of potentiating corrosion, consequently corrosion inhibition packages which follow the guidelines or regulations for offshore oil production are highly desirable for operators. Where applicable the fluids (acid compositions) were diluted as indicated.

[4] = cited from earlier work; remark: listed apart in the source

SMILES: Cl [Hydrogen chloride gas, Hydrogen chloride]
- level at which death can occur [1]: 1300-2000 ppm

SMILES: CCCCCCOCCOCCOCCO [NOVEL® 6-3 Ethoxylate, CH3 (CH2)4CH2(OCH2CH2)3OH]
- solubility in hydrocarbons [2]: soluble
- solubility in water [2]: sparingly soluble

SMILES: O=CC=Cc1ccccc1 [ZA, Cinnamaldehyde]
- Corrosion lb/ft2 [3]: 0.008 lb/ft2
- Corrosion rate Mils/yr [3]: 296.053 Mils/yr
- Corrosion rate mm/year [3]: 7.52 mm/year
- Wt loss [3]: 0.168 g

SMILES: C#CCO [propargyl alcohol]
- performance on Cr-13 alloys (pitting) [4]: poor performance
